Measurements from PMC11045757, “Group 3 medulloblastoma transcriptional networks collapse under domain specific EP300/CBP inhibition” (Nature Communications, 2024).
Where “and” joins values, the source holds several entries; their conditions need not be identical. Equal entries are not always repeated. Where two headings read alike, the source gives them in different places.

Legend:
[1] = target: GFP-tagged CBP bromodomain (Homo sapiens, UniProt Q92793); assay: Microscale thermophoresis (MST); type: binding; conditions: for Response (Dose Response Curve): MST raw response; for Bound (Fit Results): fitted MST response of bound state; for Unbound (Fit Results): fitted MST response of unbound state
Experimental: MST experiments were performed in a Monolith NT.115 Pico instrument (NanoTemper Technologies) following published procedures. […] MST traces were recorded using standard parameters: 5 s MST power off, 30 s MST power on and 5 s MST power off. Measurements were taken at -1-0 s (cold region) and 10 s (hot region) and data were analyzed using the NTAnalysis software.

EP300 bromodomain = target: T1, EP300 bromodomain (Homo sapiens, UniProt Q09472); assay: Differential scanning fluorimetry (DSF) thermal shift; type: binding; conditions: for ∆Tm (°C) EP300 / ΔTm (°C) EP300: DSF; for ∆Tm (°C) EP300: 5 μM protein, 100 μM compound, three independent experiments, average ± SD; for ΔTm (°C) EP300: Figure 3B
T1 construct: 6xHis (cleaved yes); host or cells: E. coli BL21 (DE3) RIL
T1 sequence (Q09472 1048-1161): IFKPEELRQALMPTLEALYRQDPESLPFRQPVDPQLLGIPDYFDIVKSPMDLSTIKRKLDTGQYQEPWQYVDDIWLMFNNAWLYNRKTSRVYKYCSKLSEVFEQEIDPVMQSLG
Experimental: (§1) At OD600 of 0.6, the culture was cooled down to 18 °C and induced with 0.1 mM IPTG. After 18 h growth, the culture was harvested by centrifugation at 6000 × g for 25 min and stored at -80 °C. Harvested cell pellets were re-suspended in 50 mM Na/K phosphate buffer (pH 7.4) containing 100 mM NaCl, 40 mM imidazole, 0.01% w/v lysozyme and 0.01% v/v Triton X-100 at 4 °C for 1 h, subjected to sonication and the lysate was clarified by centrifugation (30,000 × g for 45 min at 4 °C). Proteins were purified by FPLC at 4 °C using columns and chromatography materials from GE Healthcare. […] Proteins were purified to homogeneity by size exclusion chromatography using Superdex 75 equilibrated with elution buffer (50 mM HEPES pH 7.5, 100 mM NaCl, 2 mM DTT). All BRDs eluted as monomeric protein and were of crystallization grade quality (>95% purity as judged by SDS-PAGE). Pool fractions were combined, concentrated to 10–12 mg/ml, and aliquots were flash-frozen in liquid N2 and stored at −80 °C.
(§2) DSF experiments were performed with an Applied Biosystem StepOnePlus real-time PCR system (Thermo Fisher Scientific) using 96-well format plates, assayed in quadruplicate. For thermal shift determination, 5 μM protein was mixed with 100 μM compound in 50 mM HEPES, pH 7.5, 150 mM NaCl, 2 mM DTT, 2% DMSO, 5X SYPRO Orange (Thermo Fisher Scientific) in 20 μL reaction volumes. Reaction mixtures were heated from 25 to 95 °C at 1 °C/min with fluorescence readings every 0.5 °C at 610 nm. The observed thermal shift (ΔTm) was recorded as the difference between the Tm of sample and DMSO reference wells.

BRD4-BD1 (BRD4-1) = target: T2, BRD4-BD1 (BRD4-1) (Homo sapiens, UniProt O60885); assay: as above; type: binding; conditions: for ∆Tm (°C) BRD4-1 / ΔTm (°C) BRD4-BD1: DSF; for ∆Tm (°C) BRD4-1: 5 μM protein, 100 μM compound, three independent experiments, average ± SD; for ΔTm (°C) BRD4-BD1: Figure 3A
T2 construct: BRD4-BD1 (residues 44-168); 6xHis (cleaved yes); host or cells: E. coli BL21 (DE3) RIL
Experimental: as §1, §2

CBP bromodomain [2] = target: T3, CBP bromodomain (Homo sapiens, UniProt Q92793); assay: as above; type: binding; conditions: for ∆Tm (°C) CBP / ΔTm (°C) CBP: DSF; for ∆Tm (°C) CBP: 5 μM protein, 100 μM compound, three independent experiments, average ± SD; for DSF ΔTm (°C): Figure 3C, DSF (values equal CBP column)
T3 construct: CBP (residues 1081-1197); 6xHis (cleaved yes); host or cells: E. coli BL21 (DE3) RIL
Experimental: as §1, with “After” for “At OD600 of 0.6, the culture was cooled down to 18 °C and induced with 0.1 mM IPTG. After”, “All BRDs eluted as monomeric protein and were of crystallization grade quality (>95% purity as judged by SDS-PAGE).” left out
(§3) DSF experiments were performed with an Applied Biosystem StepOnePlus real-time PCR system (Thermo Fisher Scientific) using 96-well format plates, assayed in quadruplicate. For thermal shift determination, 5 μM protein was mixed with 100 μM compound in 50 mM HEPES, pH 7.5, 150 mM NaCl, 2 mM DTT, 2% DMSO, 5X SYPRO Orange (Thermo Fisher Scientific) in 20 μL reaction volumes.

CBP bromodomain [3] = assay: as above; type: binding; conditions: ΔTm (CBP)/ΔTm(BRD4)
Experimental: as §1, with “After” for “At OD600 of 0.6, the culture was cooled down to 18 °C and induced with 0.1 mM IPTG. After”, “All BRDs eluted as monomeric protein and were of crystallization grade quality (>95% purity as judged by SDS-PAGE).” left out
as §3

[4] = tested on: HDMB03 (HDMBO3) group 3 medulloblastoma cells; assay: CellTiter-Glo dose-response growth assay; type: cell-based; conditions: Homo sapiens, HD-MB03; HDMBO3 G3MB cell growth; read-out: IC50 (nM) HDMBO3
Experimental: CellTiter-Glo assay was performed as per the manufacturer’s instructions, at the noted timepoint after compound treatment or plating. For Kelly, TE617T, RhJT, NCIH2122, NCIH650 and 143B, 500 cells were plated in normal growth media per well in a 384-well plate (Corning). HDMB03 and MB002 cells were plated in growth media at 500 cells/well in a 384-well plate. […] Cells were incubated for the noted timepoints prior to performing CellTiter-Glo assay as per the manufacturer’s instructions, and reading plates on an Envision 2104 microplate reader.

[5] = three independent MST experiments, average ± SD, read-out: Kd (nM) CBP
[6] = Dose 1.52588e-10, single replicate run
[7] = Dose 3.05176e-10, single replicate run
[8] = Dose 6.10352e-10, single replicate run
[9] = Dose 1.2207e-9, single replicate run
[10] = Dose 2.44141e-9, single replicate run
[11] = Dose 4.88281e-9, single replicate run
[12] = Dose 9.76563e-9, single replicate run
[13] = Dose 1.95313e-8, single replicate run
[14] = Dose 3.90625e-8, single replicate run
[15] = Dose 7.8125e-8, single replicate run
[16] = Dose 1.5625e-7, single replicate run
[17] = Dose 3.125e-7, single replicate run
[18] = Dose 6.25e-7, single replicate run
[19] = Dose 1.25e-6, single replicate run
[20] = Dose 2.5e-6, single replicate run
[21] = Dose 5e-6, single replicate run
[22] = MST, single replicate run, target clGFP-CBPBRD, TargetConcentration 5e-8, MST-Power Medium, unit inferred, read-out: Kd (Fit Results, Fit Model: Kd)
[23] = single replicate run, target clGFP-CBPBRD 5e-8

T3 sequence (Q92793 1081-1197): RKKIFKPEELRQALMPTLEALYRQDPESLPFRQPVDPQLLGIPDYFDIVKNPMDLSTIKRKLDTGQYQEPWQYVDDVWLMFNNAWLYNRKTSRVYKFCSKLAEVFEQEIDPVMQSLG
Sequence of GFP-tagged CBP bromodomain (Q92793 1085-1192 limits assumed): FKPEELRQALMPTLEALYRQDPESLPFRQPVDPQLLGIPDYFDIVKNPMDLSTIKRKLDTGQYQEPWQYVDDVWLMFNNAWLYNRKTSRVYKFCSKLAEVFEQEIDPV

COC1CCC(n2c(C3CCCC(=O)N3c3ccc4c(c3)OCCO4)nc3cc(-c4c(C)noc4C)ccc32)CC1 (stereo not shown) [Compound 7]
Kd ([1]; MO.Affinity Analysis export, single runs, target clGFP-CBPBRD 5e-8, unit inferred, read-out: Kd (fit result of individual MST run)): 15.5 nM and 27.7 nM and 7.4 nM
Kd [1, 5]: 17 nM and 16.9 nM
∆Tm (°C) EP300 (EP300 bromodomain): 13.5 ± 0.89 °C
ΔTm (°C) EP300 (EP300 bromodomain): 13.5 °C
∆Tm (°C) BRD4-1 (BRD4-BD1 (BRD4-1)): 6.9 ± 0.23 °C
ΔTm (°C) BRD4-BD1 (BRD4-BD1 (BRD4-1); BRD4-BD1): 6.9 °C
∆Tm (°C) CBP (CBP bromodomain [2]): 15.5 ± 0.14 °C
ΔTm (°C) CBP (CBP bromodomain [2]; Figure 3A, CBP bromodomain): 15.5 °C
ΔTm (°C) CBP (CBP bromodomain [2]; Figure 3B, CBP): 15.5 °C
DSF ΔTm (°C) (CBP bromodomain [2]): 15.5 °C
Ratio CBP/BRD4 of ∆Tm (CBP bromodomain [3]): 2.2
IC50 [4]: 452 ± 217 nM

COC1CCC(n2c(C3CCCC(=O)N3c3cccc(C(C)(C)C)c3)nc3cc(-c4c(C)noc4C)ccc32)CC1 (stereo not shown) [Compound 6]
Kd [1, 5]: 30 ± 21.6 nM
∆Tm (°C) EP300 (EP300 bromodomain): 14.3 ± 0.19 °C
∆Tm (°C) BRD4-1 (BRD4-BD1 (BRD4-1)): 3.2 ± 0.13 °C
∆Tm (°C) CBP (CBP bromodomain [2]): 15.3 ± 0.2 °C
Ratio CBP/BRD4 of ∆Tm (CBP bromodomain [3]): 4.8
IC50 [4]: 558 ± 335 nM

COC1CCC(n2c(C3CCCC(=O)N3c3ccccc3)nc3cc(-c4c(C)noc4C)ccc32)CC1 (stereo not shown) [iCBP5-5]
Response (Dose Response Curve) [1, 6]: 915.174
Response (Dose Response Curve) [1, 7]: 914.49
Response (Dose Response Curve) [1, 8]: 915.362
Response (Dose Response Curve) [1, 9]: 915.368
Response (Dose Response Curve) [1, 10]: 914.907
Response (Dose Response Curve) [1, 11]: 914.429
Response (Dose Response Curve) [1, 12]: 913.858
Response (Dose Response Curve) [1, 13]: 914.04
Response (Dose Response Curve) [1, 14]: 913.557
Response (Dose Response Curve) [1, 15]: 913.257
Response (Dose Response Curve) [1, 16]: 911.399
Response (Dose Response Curve) [1, 17]: 910.65
Response (Dose Response Curve) [1, 18]: 909.717
Response (Dose Response Curve) [1, 19]: 910.942
Response (Dose Response Curve) [1, 20]: 910.368
Response (Dose Response Curve) [1, 21]: 911.15
Kd [1, 22]: 44.3 nM
Bound (Fit Results) [1, 23]: 910.375
Unbound (Fit Results) [1, 23]: 914.969

COc1ccc(CCc2nc3cc(-c4c(C)noc4C)ccc3n2C[C@H](C)N2CCOCC2)cc1Cl [SGC-CBP30]
ΔTm (°C) (EP300 bromodomain; DSF thermal shift vs DMSO, EP300 bromodomain, Fig 2B): 7.9 °C
ΔTm (°C) (BRD4-BD1 (BRD4-1); DSF thermal shift vs DMSO, BRD4-BD1, Fig 2B): 0 °C

COC1CCC(n2c(C3CCCC(=O)N3c3cccc(C(C)(C)C)c3)nc3cc(-c4c(C)noc4C)ccc32)CC1 (stereo not shown) [iCBP-6]
Kd ([1]; Figure 3C, MST, read-out: MST Kd): 30 nM
Response (Dose Response Curve) [1, 6]: 893.145 and 893.496 and 892.759
Response (Dose Response Curve) [1, 7]: 891.612 and 893.465 and 892.592
Response (Dose Response Curve) [1, 8]: 892.684 and 894.151 and 892.213
Response (Dose Response Curve) [1, 9]: 892.641 and 893.04 and 893.233
Response (Dose Response Curve) [1, 10]: 892.502 and 892.231 and 892.986
Response (Dose Response Curve) [1, 11]: 891.878 and 891.94 and 891.268
Response (Dose Response Curve) [1, 12]: 891.027 and 892.27 and 891.532
Response (Dose Response Curve) [1, 13]: 892.42 and 891.618 and 892.241
Response (Dose Response Curve) [1, 14]: 890.537 and 890.96 and 891.609
Response (Dose Response Curve) [1, 15]: 889.07 and 889.984 and 889.085
Response (Dose Response Curve) [1, 16]: 888.52 and 887.496 and 888.851
Response (Dose Response Curve) [1, 17]: 887.2 and 888.101 and 888.455
Response (Dose Response Curve) [1, 18]: 887.415 and 887.704 and 886.214
Response (Dose Response Curve) [1, 19]: 888.032 and 886.878 and 886.638
Response (Dose Response Curve) [1, 20]: 887.475 and 888.923 and 888.41
Response (Dose Response Curve) [1, 21]: 888.712 and 888.775 and 886.626
Kd [1, 22]: 20 nM and 15.2 nM and 54.7 nM
Bound (Fit Results) [1, 23]: 887.696 and 887.896 and 886.89
Unbound (Fit Results) [1, 23]: 892.536 and 893.196 and 892.626
ΔTm (°C) EP300 (EP300 bromodomain): 14.3 °C
ΔTm (°C) BRD4-BD1 (BRD4-BD1 (BRD4-1); BRD4-BD1): 3.2 °C
ΔTm (°C) CBP (CBP bromodomain [2]; Figure 3A, CBP bromodomain): 15.3 °C
ΔTm (°C) CBP (CBP bromodomain [2]; Figure 3B, CBP): 15.3 °C
DSF ΔTm (°C) (CBP bromodomain [2]): 15.3 °C
